# Test results taken from US20190106697A1, “Inhibition Of Lactate Transporters For Use In The Treatment Of Inflammatory Diseases” (Queen Mary University of London, priority 2014, published 2019).
# Key:
# [1] = tested on: activated CD4+ T-cells; assay: Extracellular acidification rate (ECAR), Seahorse analyzer, CD4+ T-cells; type: cell-based, mouse; conditions: for effect on glycolysis (ECAR trace) of metabolic drugs: 2-DG 1 mM, Rapamycin 200 nM, Metformin 2 mM, Etomoxir 100 μM
# Procedure: (§1) Measurement of lactate, glycolysis, glucose uptake/flux and cell death: Lactate concentration was measured in the synovial fluid or peritoneal lavage using the Lactate assay Kit (Biovision), according to the manufacturer's instructions. Glycolytic metabolism was measured with a Seahorse XF24 Extracellular Flux Analyzer. Briefly, T-cells were grown in high glucose RPMI-1640 supplemented with 10% FCS. […] T-cell viability upon lactate or metabolic drug treatment was assessed by trypan blue exclusion assay.
# [2] = tested on: activated CD4+ T-cells; assay: In vivo peritoneal recruitment model (CXCL10 i.p.) of pre-treated activated CD4+ T-cells; conditions: cells pre-treated with Rapamycin 200 nM, 2-DG 1 mM, Metformin 2 mM; CXCL10 120 ng/mouse i.p.
# Procedure: In vivo peritoneal recruitment model: All the in vivo experiments were conducted under the UK Home Office regulation (PPL 70/7443). Activated T-cells (5×10^6/mouse) were pre-treated overnight with Rapamycin (200 nM), 2-Deoxyglucose (1 mM) or Metformin (2 mM), then labelled with the fluorescent cell dye DDAO (Invitrogen) and injected intravenously into syngeneic female C57BL/6 mice that had 3 hours prior received an intraperitoneal injection of CXCL10 (120 ng/mouse). 24 hours after injection, mice were sacrificed and spleen and peritoneal lavage were harvested. T-cells were stained for surface markers (CD4 and CD8, ebiosciences) and analysed by FACS. Cells were first gated on CD4 and subsequently analysed for DDAO positivity. This method was used in FIG. 3G and S3E.
# [3] = tested on: naive T-cells; assay: In vitro chemotaxis of naive T-cells towards CCL19/21; type: cell-based, mouse; conditions: CCL19/21 200 ng/ml each; Rapamycin 200 nM, 2-DG 1 mM, Metformin 2 mM
# Excerpt: (§2) T-cell isolation, in-vitro activation and subset enrichment: T-cells were isolated from C57BL/6 murine lymph nodes and activated for 3 to 5 days with plate bound anti-CD3 and anti-CD28 antibodies (BioLegend), and IL-2 (PeproTech). CD4+ and CD8+ subsets were enriched with commercially available CD4+ and CD8+ T-cell isolation kits according to the manufacturer's instructions (Easysep, Invitrogen) either prior or post activation according to experimental settings. Chemokinesis assays: Chemokinesis assays were performed in 5 μm transwell inlays. In some experiments, T-cells were pre-treated overnight with a number of drugs purchased from Calbiochem: Rapamycin (200 nM), 2-DG (1 mM), Metformin (2 mM). […] 3×10^6 lymphocytes were seeded in the upper transwell chamber; chemokines were added to the lower chamber: CXCL10 (300 ng/ml), CCL5 (50 ng/ml), CCL19/21 (200 ng/ml of each chemokine). Migrated T-cells were counted with a hemocytometer 2, 4 and 6 hours after seeding and % of migrated cells was calculated.
# [4] = tested on: activated CD4+ T-cells; assay: In vitro chemokinesis of activated CD4+ T-cells towards CXCL10 (transwell); type: cell-based, mouse; conditions: for chemokinesis in vitro towards CXCL10 of pre-treated activated CD4+ T-cells: pre-treated overnight: Rapamycin 200 nM, 2-DG 1 mM, Metformin 2 mM
# Excerpt: as §2
# [5] = tested on: CFSE-labelled CD4+ T-cells; assay: Zymosan-induced peritonitis: adoptive transfer of CFSE-labelled CD4+ T-cells; type: in vivo, mouse; conditions: co-injected i.p. day 5 after zymosan; 24 h
# Procedure: To establish that the decrease in T-cell localization to the peritoneal cavity was at least in part due to their increased release from this site, the inventors performed adoptive transfer experiments whereby CFSE-labelled CD4+ T-cells were co-injected with anti-Slc5a12 antibody, phloretin or an isotype control antibody in the peritoneal cavity of mice which had received zymosan (1 mg/mouse) 5 days before, to create an environment rich of lactate (FIG. 12A). 24 hours after the intra-peritoneal injection of CFSE-labelled CD4+ T-cells, mice were sacrificed, and peritoneal lavage and spleen were harvested.
# In vivo zymosan-induced peritonitis: C57BL/6 mice were injected in the peritoneal cavity with zymosan (1 mg per mouse) on day 0 or left untreated. On day 5, Phloretin (50 μM), anti-Slc5a12 antibody (5 μg/ml) or anti-rabbit IgG isotype control antibody (5 μg/ml; Invitrogen) were injected into the peritoneal cavity. 24 hours later, mice were sacrificed and the peritoneal lavage was harvested. T-cells were stained for surface markers (CD4 and CD8; ebiosciences) and analyzed by FACS. […] T-cells were stained for surface markers (CD4 and CD8; ebiosciences) and analyzed by FACS. Cells were first gated on CD4 and subsequently analysed for CFSE positivity. […]
# [6] = tested on: CD4+ and CD8+ T-cells in the peritoneum; assay: Zymosan-induced peritonitis: T-cells in peritoneal lavage; type: in vivo, mouse; conditions: i.p. day 5 after zymosan, phloretin 50 μM, antibody 5 μg/ml, 24 h
# Procedure: The inventors used a well-established mouse model of zymosan-induced peritonitis, in which T-cells are recruited to the inflamed site 5 days after zymosan injection (Montero-Melendez et al 2011 Am J Pathol 179: 259-269). C57BL/6 mice were injected in the peritoneal cavity with zymosan (1 mg/mouse) on day 0 or left untreated. On day 5, Phloretin, an anti-Slc5a12 antibody or an isotype control antibody were injected into the peritoneal cavity. 24 hours later, mice were sacrificed and the peritoneal lavage was harvested.
# In vivo zymosan-induced peritonitis: C57BL/6 mice were injected in the peritoneal cavity with zymosan (1 mg per mouse) on day 0 or left untreated. On day 5, Phloretin (50 μM), anti-Slc5a12 antibody (5 μg/ml) or anti-rabbit IgG isotype control antibody (5 μg/ml; Invitrogen) were injected into the peritoneal cavity. 24 hours later, mice were sacrificed and the peritoneal lavage was harvested. T-cells were stained for surface markers (CD4 and CD8; ebiosciences) and analyzed by FACS. This method was used in FIG. 6B and S6A-B. Alternatively C57BL/6 mice were injected in the peritoneal cavity with zymosan (1 mg per mouse) on day 0. […] T-cells were stained for surface markers (CD4 and CD8; ebiosciences) and analyzed by FACS. Cells were first gated on CD4 and subsequently analysed for CFSE positivity. […]
# [7] = molecular target: T1, Slc16a1 on CD8+ T-cells (Mus musculus, UniProt P53986); assay: Blockade of Slc16a1: chemokinesis of CD8+ T-cells exposed to lactic-acid; type: cell-based; conditions: lactic-acid 10 mM; CHC 425 μM, phloretin 25 μM, antibody 2.5 μg/ml, AR-C155858 increasing concentrations
# T1 construct: endogenous in cells
# T1 sequence (P53986 1-493): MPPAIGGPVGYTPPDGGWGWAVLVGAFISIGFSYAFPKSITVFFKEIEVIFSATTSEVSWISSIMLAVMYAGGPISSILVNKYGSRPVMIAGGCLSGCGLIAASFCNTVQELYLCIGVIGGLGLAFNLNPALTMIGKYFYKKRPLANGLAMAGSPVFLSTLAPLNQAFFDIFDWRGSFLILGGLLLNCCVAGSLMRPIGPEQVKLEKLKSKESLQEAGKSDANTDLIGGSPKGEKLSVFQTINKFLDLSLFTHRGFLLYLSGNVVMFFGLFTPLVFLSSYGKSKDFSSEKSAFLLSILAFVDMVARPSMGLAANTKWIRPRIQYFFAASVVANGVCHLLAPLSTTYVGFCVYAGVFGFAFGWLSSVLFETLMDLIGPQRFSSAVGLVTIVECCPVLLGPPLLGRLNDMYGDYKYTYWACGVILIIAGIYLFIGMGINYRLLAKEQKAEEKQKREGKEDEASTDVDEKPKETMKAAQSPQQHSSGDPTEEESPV
# T1 sequence (P18572 140-389 partner limits assumed): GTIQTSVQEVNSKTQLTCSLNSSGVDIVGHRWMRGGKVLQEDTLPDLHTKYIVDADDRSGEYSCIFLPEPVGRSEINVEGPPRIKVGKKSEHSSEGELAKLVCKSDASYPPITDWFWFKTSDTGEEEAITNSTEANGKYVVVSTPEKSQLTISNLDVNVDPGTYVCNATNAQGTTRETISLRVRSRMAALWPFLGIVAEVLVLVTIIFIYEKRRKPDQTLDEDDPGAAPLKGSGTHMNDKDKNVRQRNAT
# Excerpt: as §2
# [8] = tested on: CD4+ subsets Th0, Th1, Th2 and Th17; assay: qRT-PCR of cytokines and Rorc in Th0, Th1, Th2, Th17 subsets; type: cell-based, mouse; conditions: sodium-lactate 10 mM
# Procedure: RNA isolation and reverse transcription: RNA was isolated from 10^6 cells or 10 mg RA synovial tissue using commercially available kits (Qiagen) or Trizol (Life) according to the manufacturer's instructions and assessed for quality and quantity using absorption measurements. Reverse transcription to cDNA was performed according to the manufacturer's instruction (Applied Biosystems).
# qRT-PCR: Gene expression analysis was done using SYBR Green Supermix (Biorad) in CFX connect light cycler (Biorad), according to the manufacturer's instructions. Gene relative expression was calculated using the rlAct method and normalized to a reference control (RplpO). Primers for qRT-PCR were designed with the assistance of online tools (Primer 3PIus) using at least one exon junction binding site per primer pair where possible. A complete list of primers used is available in Table 2 below. Gene accession numbers are shown according to GenBank.
# Th subset differentiation: T-cells were isolated from murine lymph nodes and enriched for CD3+ and subsequently CD4+ subsets. 10^6 cells were plated/well and differentiated towards Th0, Th1, Th2 and Th17 phenotype. Conditions were: Th0 (10 ng/ml IL-2); Th1 (10 ng/ml IL-2; 3.4 ng/ml IL-12; 2 μg/ml Anti-IL-4); Th2 (10 ng/ml IL-2; 10 ng/ml IL-4; 2 μg/ml Anti-IFN-γ); Th17 (10 ng/ml IL-6; 2 μg/ml Anti-IL-4; 2 μg/ml Anti-IFN-γ, 5 ng/ml TGF-β). All antibodies and cytokines were purchased from PeproTech.
# [9] = tested on: activated CD8+ T-cells; assay: In vitro chemokinesis of activated CD8+ T-cells towards CXCL10 (transwell); type: cell-based, mouse; conditions: 10 mM lactic acid or sodium lactate; CXCL10 300 ng/ml
# Excerpt: as §2
# [10] = tested on: activated CD4+ T-cells; assay: Western blot of glycolytic enzymes in activated CD4+ T-cells treated with CXCL10; type: cell-based, mouse; conditions: CXCL10 1000 ng/ml; sodium-lactate 10 mM
# Procedure: Western blot: Protein lysates were prepared from activated T-cells in RIPA buffer. Proteins were separated with SDS-PAGE and transferred to a Nylon membrane (GE Healthcare). Membranes were blocked for 2 h at room temperature in 5% Milk/TBST, incubated overnight at 4° C. with primary antibodies (1:1000) and subsequently with HRP-conjugated secondary antibody (Amersham Bioscience) (1:5000). Antibodies against hexokinase 1, pyruvate kinase M1/2, Aldolase A, Enolase 1 and 6-actin were purchased from Cell Signaling; antibodies against Slc16a1 and Slc5a12 were purchased from Abeam.
# [11] = tested on: activated CD4+ T-cells; assay: Intracellular staining of IL-17 in activated CD4+ T-cells; type: cell-based, mouse; conditions: sodium-lactate 10 mM vs untreated
# Procedure: Intracellular protein staining: Differentiated T-cells were incubated in permeabilization/fixation buffer (ebioscience) overnight at 4° C. Samples were washed in permeabilization buffer (ebioscience) and stained for the cytokines IFN-γ and IL-17, using fluorescently conjugated primary antibodies (1:200, ebiosciences) at 4° C. for 30 minutes, and assessed by flow cytometry using a LSR Fortessa (BD Biosciences) and FlowJo version 7.6.5 software.
# [12] = tested on: activated CD4+ T-cells; assay: Glucose uptake and flux with 2-NBDG / 6-NBDG in CD4+ T-cells; type: cell-based, mouse; conditions: 10 mM; 2-NBDG and 6-NBDG probes
# Procedure: as §1
# [13] = tested on: activated CD4+ T-cells; assay: CCL5-induced chemokinesis of activated CD4+ T-cells; type: cell-based, mouse; conditions: 10 mM; CCL5 50 ng/ml
# Excerpt: as §2
compound,measurement,setting,value
CCOC(=O)[C@@]1(CCCCCCOc2ccc(Cl)cc2)CO1 [etomoxir],effect on glycolysis (ECAR trace) of metabolic drugs,[1],only minor effects
"O=CC[C@@H](O)[C@H](O)[C@H](O)CO [2-DG, 2-deoxyglucose]",effect on glycolysis (ECAR trace) of metabolic drugs,[1],inhibition of glycolysis
same,chemokinesis in vivo: T-cell recruitment to the peritoneum,[2],decrease
same,naive T-lymphocyte motility,[3],decrease
same,chemokinesis in vitro towards CXCL10 of pre-treated activated CD4+ T-cells,[4],decrease
O=C(CCc1ccc(O)cc1)c1c(O)cc(O)cc1O [phloretin],adoptively transferred T-cells in the peritoneum,[5],not
same,adoptively transferred T-cells in the spleen,[5],not
same,CD8+ T-cells in the peritoneum,[6],significant decrease
same,CD4+ T-cells in the peritoneum,[6]; vs isotype control,did not show any effect
same,chemokinesis of CD8+ T-cells exposed to lactic-acid upon blockade of Slc16a1,[7],restored
CN(C)C(=N)N=C(N)N [metformin],effect on glycolysis (ECAR trace) of metabolic drugs,[1],activation of glycolysis
same,chemokinesis in vivo: T-cell recruitment to the peritoneum,[2],increased
same,naive T-lymphocyte motility,[3],reduced
same,chemokinesis in vitro towards CXCL10 of pre-treated activated CD4+ T-cells,[4],increased
CC(O)C(=O)[O-].[Na+] (stereo not drawn) [sodium-lactate],glycolysis (ECAR) of CXCL10-stimulated CD4+ T-cells,"[1]; CXCL10 1000 ng/ml, sodium-lactate 10 mM",shut down glycolysis
same,"ECAR of CD4+ T-cells, basal conditions","[1]; sodium-lactate 10 mM, untreated control average 14 mpH/min",less than 5 mpH/min
same,IL-17 gene expression in Th subsets,[8]; all the Th subsets,significant up-regulation
same,Rorc gene expression in Th subsets,[8]; all the Th subsets,significantly elevated
same,gene expression of Th1 and Th2 signature cytokines,"[8]; reduced: IL-4, IL-5, IL-13 in Th17 subset",unmodified upon treatment with sodium-lactate or even reduced
same,CXCL10-induced chemokinesis of activated CD8+ T-cells,[9],not vice versa
same,CXCL10-induced upregulation of glycolytic enzymes,[10],inhibited
same,expression of IL-17 protein in CD4+ cells,[11],increased
same,glucose uptake and flux through glycolysis in CD4+ T-cells,[12],selectively blocks
same,CCL5-induced migration of CD4+ T-cells,[13],decreased
same,CXCL10-induced chemokinesis of activated CD4+ T-cells,"[4]; 10 mM lactic acid or sodium lactate, CXCL10 300 ng/ml",inhibited
same,EC50,"[4]; increasing concentration of sodium lactate, CXCL10 300 ng/ml, read-out: EC50 for decrease of migration of CD4+ T-cells",~10 mM
"N#CC(=Cc1ccc(O)cc1)C(=O)O [CHC, α-cyano-4-hydroxycinnamate]",chemokinesis of CD8+ T-cells exposed to lactic-acid upon blockade of Slc16a1,[7],restored
